{
  "source": "patent US6815546B2",
  "about": "“Analogues of camptothecin, their use as medicaments and the pharmaceutical compositions containing them” (Societe de Recherches et d'Applications Scientifiques …, priority 1995, dated 2004)",
  "type_in_all_cases": "cell-based",
  "key": {"[1]": {"system": "A172 (human glioblastoma)", "assay": "Test on cell proliferation (MTT test), A172", "conditions": "72 hours", "method": "(§1) a. Eight tumoral cell lines are used in this study: L1210 (mouse lymphocytic leukemia), HCT15 and LOVO (cell lines of human colon adenocarcinoma), A549 (human lung carcinoma), A172, U373 et U87 (human glioblastoma). All these lines are obtained from the American Type Culture Collection (ATCC), Rockville, Md. The L1210 cell cultures in suspension are cultured in Dulbecco's modified Eagle's medium (DMEM) (BioWhitaker, Verviers, Belgium) together with 10% of foetal calf serum inactivated by heating, 2 mM of glutamine, 50 μg/ml of penicillin and 50 μg/ml of streptomycin. The HT29 cells are cultured in mono-layer cultures in a McCoy 5a medium (Gibco, Paisley, United Kingdom) together with 10% of foetal calf serum inactivated by heat plus 2 mM of glutamine and 50 μg/ml of gentamycin. The other cells are cultured in an Earle's modified essential medium (EMEM; Gibco, Paisley, United Kingdom) together with 5% foetal calf serum inactivated by heat, 2 mM of glutamine, 50 U/ml of penicillin and 50 μg/ml of streptomycin. All the cell lines are cultured at 37° C. in a humidified atmosphere containing 95% air and 5% CO2.\n(§2) Inhibition of the tumor cell line proliferation is determined using an MTT test. 1500 L1210 cells in a culture medium (according to the needs of the cell medium) are seeded in a well of a micro-well plate (tissue culture level: 96 wells, flat bottom) 24 hours before treatment with the compounds to be tested. For these dose-response studies, the cells are incubated with each of the compounds to be tested or their corresponding solvent (controls) for 48 hours over a final concentration range of 1.10^−10 to 1.10^−4 M. All the compounds are dissolved just before use in dimethylsulphoxide (DMSO) at a concentration of 50 mM. Other dilutions of the medicaments are carried out in the culture medium. The final concentration of DMSO never exceeds 0.2% (v/v). As controls, the solutions of medicaments are replaced with the solvent which is diluted successively in the same way as the compounds to be tested.\n(§3) After the incubation period, the labeling reagent MTT (3-[4,5-dimethylthiazol-2-yl]-2,5-diphenyltetrazolium bromide; Thiazol blue, Sigma M 565, Sigma, St Louis, Mo.) is added at a final concentration of 0.3 mg/ml to each well. The cells are incubated for 4 hours at 37° C. in a humidified atmosphere. This stage allows the mitochondrial dehydrogenase of the living cells to convert the yellow tetrazolium salt MTT into crimson formazan crystals. The supernatant part is eliminated and the formazan crystals formed are solubilized with DMSO. The resultant coloured solution is quantified by absorbance at 570 nm by using a multi-cuvette scanning spectrophotometer. The data concerning the proliferation is expressed as a percentage of living cells in the treated wells, divided by the living cells in the controls. Each point represents the average of three independent experiments, each experiment represents six determinations.\n(§4) For the other cell lines (HCT15, LOVO, A549, A172, U373, U87), 1000 to 2000 cells are seeded in the well of a micro-well plate 24 hours before medicinal treatment. […]\n(§5) The results are expressed as percentages of the calculated proliferation by the optical density (OD) of the cells treated with a medicament divided by the OD of the control cells (cells treated with DMSO). As represented in Table II, the compounds to be tested have inhibited the proliferation of cells in a dose-dependent manner."}, "[2]": {"system": "LOVO (cell lines of human colon adenocarcinoma)", "assay": "Test on cell proliferation (MTT test), LOVO", "conditions": "72 hours", "method": "as §1, §2, §3, §4, §5"}, "[3]": {"system": "A549 (human lung carcinoma)", "assay": "Test on cell proliferation (MTT test), A549", "conditions": "72 hours", "method": "as §1, §2, §3, §4, §5"}, "[4]": {"system": "U373 (human glioblastoma)", "assay": "Test on cell proliferation (MTT test), U373", "conditions": "72 hours", "method": "as §1, §2, §3, §4, §5"}, "[5]": {"system": "HCT15 (cell lines of human colon adenocarcinoma)", "assay": "Test on cell proliferation (MTT test), HCT15", "conditions": "72 hours", "method": "as §1, §2, §3, §4, §5"}, "U87 (human glioblastoma)": {"system": "U87 (human glioblastoma)", "assay": "Test on cell proliferation (MTT test), U87", "conditions": "72 hours", "method": "as §1, §2, §3, §4, §5"}, "[6]": {"system": "L1210 (mouse lymphocytic leukemia)", "assay": "Test on cell proliferation (MTT test), L1210", "conditions": "48 hours", "method": "as §1, §2, §3, §5"}},
  "data": [
    {"smiles": "CCC1(O)CC(=O)OCc2c1cc1n(c2=O)Cc2cc3cc4c(cc3nc2-1)OCCO4", "note": "(stereo not shown) [Example 11, 8-ethyl-8-hydroxy-2,3,8,9,12,15-hexahydro-10H,13H-[1,4]dioxino [2,3-g]oxepino[3′,4′:6,7]indolizino[1,2-b]quinoline-10,13-dione]", "values": [
      {"measurement": "PERCENTAGE OF CELL PROLIFERATION", "setting": "[1]; 0.1 nM", "result": 95.00, "unit": "%"},
      {"measurement": "PERCENTAGE OF CELL PROLIFERATION", "setting": "[1]; 1 nM", "result": 53.00, "unit": "%"},
      {"measurement": "PERCENTAGE OF CELL PROLIFERATION", "setting": "[1]; 10 nM", "result": 47.00, "unit": "%"},
      {"measurement": "PERCENTAGE OF CELL PROLIFERATION", "setting": "[1]; 100 nM", "result": 39.00, "unit": "%"},
      {"measurement": "PERCENTAGE OF CELL PROLIFERATION", "setting": "[1]; 1 000 nM", "result": 12.00, "unit": "%"},
      {"measurement": "PERCENTAGE OF CELL PROLIFERATION", "setting": "[1]; 10 000 nM", "result": 3.00, "unit": "%"},
      {"measurement": "PERCENTAGE OF CELL PROLIFERATION", "setting": "[1]; 100 000 nM", "result": 2.00, "unit": "%"},
      {"measurement": "PERCENTAGE OF CELL PROLIFERATION", "setting": "[2]; 0.1 nM", "result": 66.00, "unit": "%"},
      {"measurement": "PERCENTAGE OF CELL PROLIFERATION", "setting": "[2]; 1 nM", "result": 42.00, "unit": "%"},
      {"measurement": "PERCENTAGE OF CELL PROLIFERATION", "setting": "[2]; 10 nM", "result": 29.00, "unit": "%"},
      {"measurement": "PERCENTAGE OF CELL PROLIFERATION", "setting": "[2]; 100 nM", "result": 21.00, "unit": "%"},
      {"measurement": "PERCENTAGE OF CELL PROLIFERATION", "setting": "[2]; 1 000 nM", "result": 8.00, "unit": "%"},
      {"measurement": "PERCENTAGE OF CELL PROLIFERATION", "setting": "[2]; 10 000 nM", "result": 3.00, "unit": "%"},
      {"measurement": "PERCENTAGE OF CELL PROLIFERATION", "setting": "[2]; 100 000 nM", "result": 3.00, "unit": "%"},
      {"measurement": "PERCENTAGE OF CELL PROLIFERATION", "setting": "[3]; 0.1 nM", "result": 82.00, "unit": "%"},
      {"measurement": "PERCENTAGE OF CELL PROLIFERATION", "setting": "[3]; 1 nM", "result": 44.00, "unit": "%"},
      {"measurement": "PERCENTAGE OF CELL PROLIFERATION", "setting": "[3]; 10 nM", "result": 29.00, "unit": "%"},
      {"measurement": "PERCENTAGE OF CELL PROLIFERATION", "setting": "[3]; 100 nM", "result": 26.00, "unit": "%"},
      {"measurement": "PERCENTAGE OF CELL PROLIFERATION", "setting": "[3]; 1 000 nM", "result": 4.00, "unit": "%"},
      {"measurement": "PERCENTAGE OF CELL PROLIFERATION", "setting": "[3]; 10 000 nM", "result": 3.00, "unit": "%"},
      {"measurement": "PERCENTAGE OF CELL PROLIFERATION", "setting": "[3]; 100 000 nM", "result": 2.00, "unit": "%"},
      {"measurement": "PERCENTAGE OF CELL PROLIFERATION", "setting": "[4]; 0.1 nM", "result": 50.00, "unit": "%"},
      {"measurement": "PERCENTAGE OF CELL PROLIFERATION", "setting": "[4]; 1 nM", "result": 30.00, "unit": "%"},
      {"measurement": "PERCENTAGE OF CELL PROLIFERATION", "setting": "[4]; 10 nM", "result": 25.00, "unit": "%"},
      {"measurement": "PERCENTAGE OF CELL PROLIFERATION", "setting": "[4]; 100 nM", "result": 8.00, "unit": "%"},
      {"measurement": "PERCENTAGE OF CELL PROLIFERATION", "setting": "[4]; 1 000 nM", "result": 2.00, "unit": "%"},
      {"measurement": "PERCENTAGE OF CELL PROLIFERATION", "setting": "[4]; 10 000 nM", "result": 1.00, "unit": "%"},
      {"measurement": "PERCENTAGE OF CELL PROLIFERATION", "setting": "[4]; 100 000 nM", "result": 2.00, "unit": "%"},
      {"measurement": "PERCENTAGE OF CELL PROLIFERATION", "setting": "[5]; 0.1 nM", "result": 71.00, "unit": "%"},
      {"measurement": "PERCENTAGE OF CELL PROLIFERATION", "setting": "[5]; 1 nM", "result": 63.00, "unit": "%"},
      {"measurement": "PERCENTAGE OF CELL PROLIFERATION", "setting": "[5]; 10 nM", "result": 45.00, "unit": "%"},
      {"measurement": "PERCENTAGE OF CELL PROLIFERATION", "setting": "[5]; 100 nM", "result": 23.00, "unit": "%"},
      {"measurement": "PERCENTAGE OF CELL PROLIFERATION", "setting": "[5]; 1 000 nM", "result": 12.00, "unit": "%"},
      {"measurement": "PERCENTAGE OF CELL PROLIFERATION", "setting": "[5]; 10 000 nM", "result": 9.00, "unit": "%"},
      {"measurement": "PERCENTAGE OF CELL PROLIFERATION", "setting": "[5]; 100 000 nM", "result": 9.00, "unit": "%"},
      {"measurement": "PERCENTAGE OF CELL PROLIFERATION", "setting": "U87 (human glioblastoma); 0.1 nM", "result": 40.00, "unit": "%"},
      {"measurement": "PERCENTAGE OF CELL PROLIFERATION", "setting": "U87 (human glioblastoma); 1 nM", "result": 21.00, "unit": "%"},
      {"measurement": "PERCENTAGE OF CELL PROLIFERATION", "setting": "U87 (human glioblastoma); 10 nM", "result": 12.00, "unit": "%"},
      {"measurement": "PERCENTAGE OF CELL PROLIFERATION", "setting": "U87 (human glioblastoma); 100 nM", "result": 6.00, "unit": "%"},
      {"measurement": "PERCENTAGE OF CELL PROLIFERATION", "setting": "U87 (human glioblastoma); 1 000 nM", "result": 1.00, "unit": "%"},
      {"measurement": "PERCENTAGE OF CELL PROLIFERATION", "setting": "U87 (human glioblastoma); 10 000 nM", "result": 1.00, "unit": "%"},
      {"measurement": "PERCENTAGE OF CELL PROLIFERATION", "setting": "U87 (human glioblastoma); 100 000 nM", "result": 1.00, "unit": "%"},
      {"measurement": "PERCENTAGE OF CELL PROLIFERATION", "setting": "[6]; 0.1 nM", "result": 91.99, "unit": "%"},
      {"measurement": "PERCENTAGE OF CELL PROLIFERATION", "setting": "[6]; 1 nM", "result": 81.37, "unit": "%"},
      {"measurement": "PERCENTAGE OF CELL PROLIFERATION", "setting": "[6]; 10 nM", "result": 23.16, "unit": "%"},
      {"measurement": "PERCENTAGE OF CELL PROLIFERATION", "setting": "[6]; 100 nM", "result": 16.83, "unit": "%"},
      {"measurement": "PERCENTAGE OF CELL PROLIFERATION", "setting": "[6]; 1 000 nM", "result": 5.59, "unit": "%"},
      {"measurement": "PERCENTAGE OF CELL PROLIFERATION", "setting": "[6]; 10 000 nM", "result": 1.45, "unit": "%"},
      {"measurement": "PERCENTAGE OF CELL PROLIFERATION", "setting": "[6]; 100 000 nM", "result": 1.04, "unit": "%"}
    ]}
  ]
}
